Test results published in patent US10258602B2 (Ocera Therapeutics, Inc., priority 2007, dated 2019).

The compounds below were run against human growth hormone secretagogue receptor (hGHS-R1a) (Homo sapiens, UniProt Q92847) (assay: Competitive radioligand binding assay (ghrelin receptor), standard method A). Conditions: not given.
Chain of human growth hormone secretagogue receptor (hGHS-R1a) (Q92847 whole entry): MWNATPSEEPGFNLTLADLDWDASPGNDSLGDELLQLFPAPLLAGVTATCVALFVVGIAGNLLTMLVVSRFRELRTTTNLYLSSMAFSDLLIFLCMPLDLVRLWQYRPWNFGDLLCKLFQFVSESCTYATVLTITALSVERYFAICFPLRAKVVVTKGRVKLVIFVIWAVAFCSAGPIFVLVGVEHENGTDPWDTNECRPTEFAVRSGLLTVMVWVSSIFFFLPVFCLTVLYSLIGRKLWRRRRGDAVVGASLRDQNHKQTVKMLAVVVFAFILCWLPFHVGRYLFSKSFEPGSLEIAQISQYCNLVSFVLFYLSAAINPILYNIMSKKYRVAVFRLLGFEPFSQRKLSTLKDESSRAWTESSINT
Excerpt: A competitive binding assay at the human growth hormone secretagogue receptor (hGHS-R1a) can be carried out analogously to assays described in the literature. (Bednarek, M. A.; et al. J. Med. Chem. 2000, 43, 4370-4376; Palucki, B. L.; et al. Bioorg. Med. Chem. Lett. […], 11, 1955-1957.) See also U.S. patent application Ser. Nos. 11/149,512 and 11/149,731. Binding activity at the gherlin receptor for representative compounds of the present invention is shown in the Examples below.
With CCC(C)[C@@H]1NCC(C)(C)Oc2ccccc2CCCNC(=O)[C@@H](Cc2ccccc2)NC(=O)[C@@H](C)N(C)C1=O (stereo partly drawn) [Compound 923] the Ki was at most 100 nM.

Same assay, conditions: binding activity at the human ghrelin receptor, standard method A
In the case of CC1CNC(C2CC2)C(=O)N(C)C(C)C(=O)NC(CC2CCCC2)C(=O)NCCCc2ccccc2O1 (mixture of isomers) [Compound 1047], the Ki is reported as at most 100 nM.
Work on CC1CNC(C2CC2)C(=O)N(C)C(C)C(=O)NC(Cc2ccc(O)c(F)c2)C(=O)NCCCc2ccccc2O1 (mixture of isomers) [Compound 1049] yielded a Ki of at most 100 nM.
Work on CC1CNC(C2CC2)C(=O)N(C)C(C)C(=O)NC(Cc2ccc(F)cc2)C(=O)NCCCC2CCCCC2O1 (mixture of isomers) [Compound 1052] yielded a Ki of at most 1 nM.
Work on CC(=O)Oc1ccc(CC2NC(=O)C(C)N(C)C(=O)C(C3CC3)NCC(C)Oc3ccccc3CCCNC2=O)cc1F (mixture of isomers) [Compound 1065] yielded a Ki of at most 100 nM.
Work on CC1C(=O)NC(Cc2ccc(O)c(F)c2)C(=O)NCCCc2ncccc2OCCNC(C2CC2)C(=O)N1C (mixture of isomers) [Compound 1078] yielded a Ki of at most 100 nM.
CC1CNC(C2CC2)C(=O)N(C)C(C)C(=O)NC(Cc2ccccc2O)C(=O)NCCCc2ccccc2O1 (mixture of isomers) [Compound 1101] was tested, and the Ki was at most 500 nM.
With CC1CNC(C2CC2)C(=O)N(C)C(C)C(=O)NC(CC2CCCC2)C(=O)NCCCC2CCCCC2O1 (mixture of isomers) [Compound 1114] the Ki was at most 1 nM.
CC1CNC(C2CC2)C(=O)N(C)C(C)C(=O)NC(Cc2ccccc2O)C(=O)NCCCC2CCCCC2O1 (mixture of isomers) [Compound 1115] showed a Ki of at most 500 nM.
For C[C@@H]1CN[C@@H](C2CC2)C(=O)N(C)[C@H](C)C(=O)N[C@H](Cc2ccccc2)C(=O)NCCCc2ccccc2O1 [Compound 851], the Ki was at most 100 nM.
CCC[C@@H]1NC[C@@H](C)Oc2ccccc2CCCNC(=O)[C@@H](Cc2ccc(F)cc2)NC(=O)[C@@H](C)N(C)C1=O [Compound 853] gave a Ki of at most 100 nM.
In the case of CC[C@H](C)[C@@H]1NC[C@@H](C)Oc2ccccc2CCCNC(=O)[C@@H](Cc2ccc(F)cc2)NC(=O)[C@@H](C)N(C)C1=O [Compound 855], the Ki is reported as at most 100 nM.
For CC[C@H](C)[C@@H]1NC[C@@H](C)Oc2cc(F)ccc2CCCNC(=O)[C@@H](Cc2ccc(F)cc2)NC(=O)[C@@H](C)N(C)C1=O [Compound 856], the Ki was at most 500 nM.
In the case of CC(C)[C@@H]1NC[C@@H](C)Oc2ccccc2CCCNC(=O)[C@@H](Cc2ccc(F)cc2)NC(=O)[C@@H](C)N(C)C1=O [Compound 857], the Ki is reported as at most 500 nM.
Compound CCC[C@@H]1NC[C@@H](C)Oc2ccccc2CCCNC(=O)[C@@H](Cc2ccccc2)NC(=O)[C@@H](C)N(C)C1=O [Compound 858] has a Ki of at most 500 nM.
Work on CCC[C@@H]1NC[C@H](C)Oc2ccccc2CCCNC(=O)[C@@H](Cc2ccccc2)NC(=O)[C@@H](C)N(C)C1=O [Compound 859] yielded a Ki of at most 500 nM.
Compound Cc1ccc(C[C@H]2NC(=O)[C@@H](C)N(C)C(=O)[C@H](C3CC3)NCCOc3ccccc3CCCNC2=O)cc1 [Compound 860] has a Ki of at most 10 nM.
Compound CCC[C@@H]1NC[C@@H](C)Oc2ccccc2CCCNC(=O)[C@@H](Cc2ccc(Cl)cc2)NC(=O)[C@@H](C)N(C)C1=O [Compound 863] has a Ki of at most 100 nM.
Work on C[C@@H]1C(=O)N[C@H](Cc2ccc(Cl)cc2)C(=O)NCCCc2ccc(F)cc2OCCN[C@@H](C2CC2)C(=O)N1C [Compound 864] yielded a Ki of at most 10 nM.
C[C@@H]1C(=O)N[C@H](Cc2ccccc2)C(=O)NCCCc2ccc(F)cc2OCCN[C@@H](C2CC2)C(=O)N1C [Compound 865] gave a Ki of at most 100 nM.
In the case of CCC[C@@H]1NC[C@@H](C)Oc2ccccc2CCCNC(=O)[C@@H](Cc2ccc(OC)cc2)NC(=O)[C@@H](C)N(C)C1=O [Compound 866], the Ki is reported as at most 100 nM.
COc1ccc(C[C@H]2NC(=O)[C@@H](C)N(C)C(=O)[C@H](C3CC3)NC[C@@H](C)Oc3ccccc3CCCNC2=O)cc1 [Compound 867] gave a Ki of at most 100 nM.
Compound CC(C)[C@@H]1NC[C@H](C)Oc2ccccc2CCCNC(=O)[C@@H](Cc2ccccc2)NC(=O)[C@@H](C)N(C)C1=O [Compound 870] has a Ki of at most 500 nM.
CC(C)[C@@H]1NC[C@@H](C)Oc2ccccc2CCCNC(=O)[C@@H](Cc2ccccc2)NC(=O)[C@@H](C)N(C)C1=O [Compound 871] gave a Ki of at most 500 nM.
Work on C[C@@H]1C(=O)N[C@H](Cc2ccccc2Cl)C(=O)NCCCc2ccccc2OCCN[C@@H](C2CC2)C(=O)N1C [Compound 872] yielded a Ki of at most 10 nM.
Work on C[C@@H]1C(=O)N[C@H](Cc2cccc(Cl)c2)C(=O)NCCCc2ccccc2OCCN[C@@H](C2CC2)C(=O)N1C [Compound 873] yielded a Ki of at most 100 nM.
In the case of C[C@@H]1C(=O)N[C@H](Cc2ccccc2)C(=O)NCCCc2cccc3c2OC(CC3)CN[C@@H](C2CC2)C(=O)N1C (stereo partly drawn) [Compound 874], the Ki is reported as at most 100 nM.
C[C@@H]1CN[C@@H](C2CC2)C(=O)N(C)[C@H](C)C(=O)N[C@H](Cc2ccccc2)C(=O)NCCCc2ccc(F)cc2O1 [Compound 876] gave a Ki of at most 100 nM.
Work on CC[C@H](C)[C@@H]1NC[C@@H](C)Oc2ccccc2CCCNC(=O)[C@@H](Cc2ccc(Cl)cc2)NC(=O)[C@@H](C)N(C)C1=O [Compound 878] yielded a Ki of at most 100 nM.
C[C@@H]1CN[C@@H](C2CC2)C(=O)N(C)[C@H](C)C(=O)N[C@H](Cc2ccc(Cl)cc2)C(=O)NCCCc2cccc(F)c2O1 [Compound 936] was tested, and the Ki was at most 100 nM.
For C[C@@H]1CN[C@@H](C2CC2)C(=O)N(C)[C@H](C)C(=O)N[C@H](Cc2ccc(F)cc2)C(=O)NCCCc2c(F)cccc2O1 [Compound 937], the Ki was at most 500 nM.
Work on C[C@@H]1CN[C@@H](C2CC2)C(=O)N(C)[C@H](C)C(=O)N[C@H](Cc2ccc(Cl)cc2)C(=O)NCCCc2c(F)cccc2O1 [Compound 938] yielded a Ki of at most 100 nM.
Compound CC[C@H](C)[C@@H]1NC[C@@H](C)Oc2ccccc2CCCNC(=O)[C@@H](Cc2ccccc2)NC(=O)[C@@H](CO)N(C)C1=O [Compound 939] has a Ki of at most 100 nM.
Compound C[C@@H]1C(=O)N[C@H](Cc2ccc(F)cc2)C(=O)NCCCc2cccc3c2OC(CC3)CN[C@@H](C2CC2)C(=O)N1C (stereo partly drawn) [Compound 946] has a Ki of at most 10 nM.
C[C@@H]1C(=O)N[C@H](Cc2ccc(Cl)cc2)C(=O)NCCCc2cccc3c2OC(CC3)CN[C@@H](C2CC2)C(=O)N1C (stereo partly drawn) [Compound 947] showed a Ki of at most 10 nM.
For C[C@@H]1CN[C@@H](C2CC2)C(=O)N(C)[C@H](C)C(=O)N[C@H](Cc2ccc(F)cc2)C(=O)NCCCc2cc(F)c(F)cc2O1 [Compound 950], the Ki was at most 500 nM.
For C[C@@H]1CN[C@@H](C2CC2)C(=O)N(C)[C@H](C)C(=O)N[C@H](Cc2ccc(Cl)cc2)C(=O)NCCCc2cc(F)c(F)cc2O1 [Compound 951], the Ki was at most 500 nM.
CC[C@H](C)[C@@H]1NCCOc2ccccc2CCCNC(=O)[C@@H](Cc2ccccc2)NC(=O)[C@@H](CF)N(C)C1=O [Compound 954] was tested, and the Ki was at most 500 nM.
For CC(C)[C@@H]1CN[C@@H](C2CC2)C(=O)N(C)[C@H](C)C(=O)N[C@H](Cc2ccccc2)C(=O)NCCCc2ccc(F)cc2O1 [Compound 965], the Ki was at most 500 nM.
CC(C)[C@@H]1CN[C@@H](C2CC2)C(=O)N(C)[C@H](C)C(=O)N[C@H](Cc2ccc(Cl)cc2)C(=O)NCCCc2ccc(F)cc2O1 [Compound 966] showed a Ki of at most 500 nM.
C[C@@H]1CN[C@@H](C2CC2)C(=O)N(C)[C@H](C)C(=O)N[C@H](Cc2ccccn2)C(=O)NCCCc2ccccc2O1 [Compound 972] was tested, and the Ki was at most 100 nM.
Work on CC[C@H](C)[C@@H]1NC[C@@H](C)Oc2c(F)cccc2CCCNC(=O)[C@@H](Cc2cccnc2)NC(=O)[C@@H](C)N(C)C1=O [Compound 974] yielded a Ki of at most 100 nM.
C[C@@H]1CN[C@@H](C2CC2)C(=O)N(C)[C@H](C)C(=O)N[C@H](Cc2ccncc2)C(=O)NCCCc2ccccc2O1 [Compound 977] was tested, and the Ki was at most 500 nM.
CC[C@H](C)[C@@H]1NC[C@@H](C)Oc2ccccc2CCCNC(=O)[C@@H](Cc2ccncc2)NC(=O)[C@@H](C)N(C)C1=O [Compound 978] was tested, and the Ki was at most 100 nM.
For CC[C@H](C)[C@@H]1NC[C@@H](C)Oc2c(F)cccc2CCCNC(=O)[C@@H](CC(C)C)NC(=O)[C@@H](C)N(C)C1=O [Compound 981], the Ki was at most 10 nM.
CC(C)C[C@H]1NC(=O)[C@@H](C)N(C)C(=O)[C@H](C2CC2)NCCOc2cccnc2CCCNC1=O [Compound 986] gave a Ki of over 500 nM.
CC[C@H](C)[C@@H]1NCCOc2cccnc2CCCNC(=O)[C@@H](CC(C)C)NC(=O)[C@@H](C)N(C)C1=O [Compound 987] was tested, and the Ki was at most 500 nM.
In the case of C[C@@H]1C(=O)N[C@H](Cc2ccc(O)cc2)C(=O)NCCCc2ncccc2OCCN[C@@H](C2CC2)C(=O)N1C [Compound 988], the Ki is reported as at most 100 nM.
Compound C[C@@H]1CN[C@@H](C2CC2)C(=O)N(C)[C@H](C)C(=O)N[C@H](Cc2ccc(O)cc2)C(=O)NCCCc2cccc(F)c2O1 [Compound 991] has a Ki of at most 100 nM.
Work on CC[C@H](C)[C@@H]1NCCOc2cccnc2CCCNC(=O)[C@@H](Cc2ccc(O)cc2)NC(=O)[C@@H](C)N(C)C1=O [Compound 992] yielded a Ki of at most 100 nM.
For CC[C@H](C)[C@@H]1NC[C@@H](C)Oc2ccccc2CCCNC(=O)[C@@H](Cc2ccc(O)cc2)NC(=O)[C@@H](C)N(C)C1=O [Compound 993], the Ki was at most 100 nM.
CC[C@H](C)[C@@H]1NC[C@@H](C)Oc2c(F)cccc2CCCNC(=O)[C@@H](Cc2ccc(O)cc2)NC(=O)[C@@H](C)N(C)C1=O [Compound 994] gave a Ki of at most 100 nM.
Work on C[C@@H]1C(=O)N[C@H](Cc2cccs2)C(=O)NCCCc2ncccc2OCCN[C@@H](C2CC2)C(=O)N1C [Compound 995] yielded a Ki of at most 100 nM.
In the case of CC[C@H](C)[C@@H]1NC[C@@H](C)Oc2cccnc2CCCNC(=O)[C@@H](CC(C)C)NC(=O)[C@@H](C)N(C)C1=O [Compound 1000], the Ki is reported as at most 500 nM.
C[C@@H]1C(=O)N[C@H](Cc2ccc(F)cc2)C(=O)NCCCc2ccccc2OC(C)(C)CN[C@@H](C2CC2)C(=O)N1C [Compound 1003] showed a Ki of at most 100 nM.
Work on C[C@H]1CNC(=O)[C@@H](Cc2ccc(F)cc2)NC(=O)[C@@H](C)N(C)C(=O)[C@H](C2CC2)NC[C@@H](C)Oc2ccccc2C1 [Compound 1005] yielded a Ki of at most 100 nM.
With CC(C)C[C@H]1NC(=O)[C@@H](C)N(C)C(=O)[C@H](C2CC2)NC[C@@H](C)Oc2c(Cl)cccc2CCCNC1=O [Compound 1006] the Ki was at most 500 nM.
